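Exposure lasted 48 hours, with cells grown in 96-well plates and compounds tested at five concentrations. GI50 marks 50% less growth.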 Calls of active or inactive are those of the source. Cut-off read from the data, not from the text of the source: active = GI50 up to about 1.1 µM and inactive = higher.
What was measured:
Experiment in all cases: DTP human tumour cell line panel, 48 h
[1] = test system: OVCAR-8
[2] = test system: NCI/ADR-RES
[3] = test system: M14
[4] = test system: SR
[5] = test system: UO-31
[6] = test system: NCI-H23
[7] = test system: BT-549
[8] = test system: LOX IMVI
[9] = test system: UACC-62
[10] = test system: KM12
[11] = test system: HCT-116
[12] = test system: SK-MEL-28
[13] = test system: TK-10
[14] = test system: NCI-H226
[15] = test system: 786-0
[16] = test system: HT-29
[17] = test system: K562
[18] = test system: DU-145
[19] = test system: RPMI-8226
[20] = test system: MDA-MB-231
[21] = test system: U-251
[22] = test system: SNB-19
[23] = test system: HCT-15
[24] = test system: RXF 393
[25] = test system: MOLT-4
[26] = test system: SF-539
[27] = test system: MDA-N
[28] = test system: CCRF-CEM
[29] = test system: A549
[30] = test system: NCI-H522
[31] = test system: EKVX
[32] = test system: COLO 205
[33] = test system: SW-620
[34] = test system: SF-295
[35] = test system: CAKI-1
[36] = test system: NCI-H460
[37] = test system: PC-3
[38] = test system: OVCAR-3
[39] = test system: SK-MEL-2
[40] = test system: Hs-578T
[41] = test system: IGROV-1
[42] = test system: HL-60
[43] = test system: A498
[44] = test system: MDA-MB-435
[45] = test system: SN12C
[46] = test system: SNB-75
[47] = test system: ACHN
[48] = test system: OVCAR-5
[49] = test system: UACC-257
[50] = test system: SF-268
[51] = test system: SK-MEL-5
[52] = test system: SK-OV-3
[53] = test system: Malme-3M

Measured: GI50

CCOC(=O)Cc1cc(=O)oc2cc(O)ccc12
> 100 µM: [23]
inactive: [1] > 100 µM | [2] > 100 µM | [3] > 100 µM | [4] > 100 µM | [5] > 100 µM | [6] > 100 µM | [7] > 100 µM | [8] > 100 µM | [9] > 100 µM | [10] > 100 µM | [11] > 100 µM | [12] > 100 µM | [13] > 100 µM | [14] > 100 µM | [15] > 100 µM | [16] > 100 µM | [17] > 100 µM | [18] > 100 µM | [19] > 100 µM | [20] > 100 µM | [21] > 100 µM | [22] > 100 µM | [24] > 100 µM | [25] > 100 µM | [26] > 100 µM | [27] > 100 µM | [28] > 100 µM | [29] > 100 µM | [30] > 100 µM | [31] > 100 µM | [32] > 100 µM | [33] > 100 µM | [34] > 100 µM | [35] > 100 µM | [36] > 100 µM | [37] > 100 µM | [38] > 100 µM | [39] > 100 µM | [40] > 100 µM | [41] > 100 µM | [42] > 100 µM | [43] > 100 µM | [44] > 100 µM | [45] > 100 µM | [46] > 100 µM | [47] > 100 µM | [48] 59.4 µM | [49] > 100 µM | [50] > 100 µM | [51] > 100 µM | [52] > 100 µM | [53] > 100 µM
